How the values were obtained:
[1] = Assay 1. Stability in Simulated Gastric Fluid (SGF); format: in vitro ADME; conditions: 1 μM, 37° C., SGF pH 1.6 with pepsin
Procedure, shortened: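 Acylated compounds at a final 1 μM (diluted from 1 mM DMSO stock) were incubated at 37 °C in SGF of pH 1.6 NaCl buffer with FaSSIF powder and 0.1 mg/mL pepsin. Aliquots were quenched with acetonitrile at T0 and regular intervals, and degradation rates were determined by LC/MS.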

[2] = Assay 2. Stability in Simulated Intestinal Fluid (SIF); format: in vitro ADME; conditions: 1 μM, 37° C., SIF pH 6.7 with pancreatin
Procedure, shortened: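 Acylated compounds at 1 μM (from 1 mM DMSO stock) in fresh SIF: FaSSIF with pancreatin in pH 6.7 phosphate buffer, agitated at 37 °C. Aliquots from T0 onward quenched with 1 volume acetonitrile; LC/MS gives degradation rates.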

C57BL/6 DIO mice = experiment: DIO animal model of NAFLD/NASH in young mice (Example 16); format: in vivo; parameters: OGTT: unit not given beside the values; conditions: ad libitum in HFD; for % Weight change: 12 weeks; for OGTT: Day 82, 2 g/kg glucose PO; for OGTT / % HbA1c: ctrl HFD; for % Difference compared to ctrl: weight change vs HFD ctrl
Description: Species (number, sex, age/weight): C57BL/6 DIO mice (120+10 spares, male, ˜18 weeks of age) from Jackson Laboratories, Stock #380050. Note: 18 week old DIO mice sent sent with a minimum body weight of 39 grams. Spare animals may be used to replace study animals, as required, euthanized after completion of dose administration or transferred to Testing Facility Docket 07-12.
Cage Side Observations (Animal Health Checks): Cage side animal's health checks will be performed at least once daily to check for general health, mortality and moribundity. Clinical Observations: Clinical observations will be performed per exception. Body Weights: Body weights for all animals will be recorded prior to Day 1 and at least twice weekly thereafter, including prior to necropsy ([…]).
Dose Administration: Dosing for Groups 3-8 will be provided ad libitum in the diet. Dosing for Groups 9 (Saline) and 10 (Semaglutide at 123.4 μg/kg) in a 5 mL/kg volume, will begin on Day 1, and be performed 3 times weekly for 12 weeks by SC administration. Residual Test Article: All residual high fat diets will be frozen at nominally −20° C., and at the end of the study, several pellets of the diets for groups 2-9 (in 50-ml conical tubes) will be shipped to Sponsor, and the rest will be discarded. Residual control diets (group 1) will be stored ambient, and at the end of the study, several pellets in a 50 mL conical tube will be shipped to Sponsor and the rest is discarded. Residual test material for Group 10 will be stored at nominally −70° C., and at the end of the study, an aliquot of test material will be shipped to Sponsor, and the rest will be discarded.
(§1) Oral Glucose Tolerance Test (oGTT) On Day 82 (+/−2 days) an oGTT will be performed. Following an approximate 4 hour fast, 2 g/kg glucose (50% Dextrose diluted in sterile water for injection to a concentration of 0.4 g/mL) will be administered at 5 mL/kg via oral gavage (PO). Blood will be collected pre-glucose challenge (t=0) and at t=15, 30, 60, 90, and 120 minutes following the glucose challenge. Whole blood glucose levels will be evaluated at all time points using a handheld glucometer and will be reported in the Data Submission. This will be scheduled on a Tuesday or Thursday to avoid Group 9/10 dosing days.
as §1, with “Submission.” for “Submission. This will be scheduled on a Tuesday or Thursday to avoid Group 9/10 dosing days.”

| SMILES | Assay 1 (SGF) (% Remaining @ 1 hours) [1] | Assay 2 (SIF) (% @ Remaining 4 hours) [2] | % Weight change (C57BL/6 DIO mice) [%] | OGTT (C57BL/6 DIO mice) | % HbA1c (C57BL/6 DIO mice) [%] | % Difference compared to ctrl (C57BL/6 DIO mice) [%] |
| --- | --- | --- | --- | --- | --- | --- |
| CC(=O)Oc1cc(OC(C)=O)c2c(=O)c(OC(C)=O)c(-c3ccc(OC(C)=O)c(OC(C)=O)c3)oc2c1 [Compound 14, [2-acetoxy-4-(3,5,7-triacetoxy-4-oxo-chromen-2-yl)phenyl] acetate] | C (C: >75% of the tested compound remaining) | A (A: <25% of the tested compound remaining) | 16 | 32591 | 6.93 | −7 |
| CC(=O)O[C@H]1OC[C@H](OC(C)=O)[C@H](OC(C)=O)[C@H]1OC(C)=O [Compound 53, (2R,3R,4S,5S)-tetrahydro-2H-pyran-2,3,4,5-tetrayl Tetraacetate] | C (C: >75% of the tested compound remaining) | A (A: <25% of the tested compound remaining) | 10 | 25779 | 4.35 | −13 |
| CC(=O)Oc1cc(OC(C)=O)c2c(c1)O[C@H](c1cc(OC(C)=O)c(OC(C)=O)c(OC(C)=O)c1)[C@H](OC(=O)c1cc(OC(C)=O)c(OC(C)=O)c(OC(C)=O)c1)C2 [Compound 4, [(2R,3R)-5,7-diacetoxy-2-(3,4,5-triacetoxyphenyl)chroman-3-yl] 3,4,5-triacetoxybenzoate] | C (C: >75% of the tested compound remaining) | A (A: <25% of the tested compound remaining) | 19 | 25072 | 4.89 | −4 |
